Reference: the kinase profiling compilation of Christmann-Franck et al. (2016)

target: PDPK1 (human) (UniProt O15530); assay: radiometric filter-binding kinase assay; conditions: compound 100.0 µM; ATP 20 µM

Structure (SMILES)	inhibition [%]
CC1CN(c2nc3ccccn3c(=O)c2N)CC(C)O1 (stereo unspecified)	31
O=C(c1cccc(-c2cc3c(=O)[nH]cnc3s2)c1)N1CCOCC1	16
O=c1c(NC(=S)NCc2ccccc2)cnc2[nH]ccn12	0

same assay, conditions: compound 100.0 µM; ATP 50 µM

Structure (SMILES)	inhibition [%]
O=C(Nc1cnc2[nH]ccn2c1=O)c1ccccc1	4
CC(C)(C)Nc1c(COCc2ccccc2)nc2[nH]cnn12	8
CC(=O)Nc1nc2cnc(-c3ccccc3)cn2n1	13
CC1CN(c2nc3ccccn3c(=O)c2N)CC(C)O1 (stereo unspecified)	26
O=C(c1cccc(-c2cc3c(=O)[nH]cnc3s2)c1)N1CCOCC1	53
O=c1c(NC(=S)NCc2ccccc2)cnc2[nH]ccn12	0

target: MYLK (human) (UniProt Q15746); assay: radiometric filter-binding kinase assay; conditions: compound 100.0 µM; ATP 50 µM

Structure (SMILES)	inhibition [%]
O=C(Nc1cnc2[nH]ccn2c1=O)c1ccccc1	36
CC(C)(C)Nc1c(COCc2ccccc2)nc2[nH]cnn12	24
CC(=O)Nc1nc2cnc(-c3ccccc3)cn2n1	0
CC1CN(c2nc3ccccn3c(=O)c2N)CC(C)O1 (stereo unspecified)	0
O=C(c1cccc(-c2cc3c(=O)[nH]cnc3s2)c1)N1CCOCC1	8
O=c1c(NC(=S)NCc2ccccc2)cnc2[nH]ccn12	0

target: CAMKK2 (human) (UniProt Q96RR4); assay: radiometric filter-binding kinase assay; conditions: compound 100.0 µM; ATP 20 µM
Sequence (Q96RR4 whole entry, looked up): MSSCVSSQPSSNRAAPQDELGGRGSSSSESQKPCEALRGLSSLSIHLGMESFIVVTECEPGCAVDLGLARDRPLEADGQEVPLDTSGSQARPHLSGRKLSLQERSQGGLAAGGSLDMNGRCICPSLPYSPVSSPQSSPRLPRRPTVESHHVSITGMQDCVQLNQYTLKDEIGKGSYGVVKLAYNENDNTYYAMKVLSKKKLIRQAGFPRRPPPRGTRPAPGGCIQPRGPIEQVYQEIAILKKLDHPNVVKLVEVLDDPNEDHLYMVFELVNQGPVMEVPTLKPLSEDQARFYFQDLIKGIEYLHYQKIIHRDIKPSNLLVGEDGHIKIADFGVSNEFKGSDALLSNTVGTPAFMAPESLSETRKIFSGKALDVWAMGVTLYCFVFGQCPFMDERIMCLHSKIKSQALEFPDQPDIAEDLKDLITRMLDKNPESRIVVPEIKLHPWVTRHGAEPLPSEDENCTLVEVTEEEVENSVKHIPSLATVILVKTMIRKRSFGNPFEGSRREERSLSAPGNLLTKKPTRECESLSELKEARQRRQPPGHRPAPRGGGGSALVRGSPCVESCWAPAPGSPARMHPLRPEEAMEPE

Structure (SMILES)	inhibition [%]
O=C(Nc1cnc2[nH]ccn2c1=O)c1ccccc1	0
CC(C)(C)Nc1c(COCc2ccccc2)nc2[nH]cnn12	28
CC(=O)Nc1nc2cnc(-c3ccccc3)cn2n1	41
CC1CN(c2nc3ccccn3c(=O)c2N)CC(C)O1 (stereo unspecified)	0
O=C(c1cccc(-c2cc3c(=O)[nH]cnc3s2)c1)N1CCOCC1	0
O=c1c(NC(=S)NCc2ccccc2)cnc2[nH]ccn12	0

target: MAP3K1 (human) (UniProt Q13233); assay: radiometric filter-binding kinase assay; conditions: compound 100.0 µM; ATP 50 µM
Sequence (Q13233 whole entry, looked up): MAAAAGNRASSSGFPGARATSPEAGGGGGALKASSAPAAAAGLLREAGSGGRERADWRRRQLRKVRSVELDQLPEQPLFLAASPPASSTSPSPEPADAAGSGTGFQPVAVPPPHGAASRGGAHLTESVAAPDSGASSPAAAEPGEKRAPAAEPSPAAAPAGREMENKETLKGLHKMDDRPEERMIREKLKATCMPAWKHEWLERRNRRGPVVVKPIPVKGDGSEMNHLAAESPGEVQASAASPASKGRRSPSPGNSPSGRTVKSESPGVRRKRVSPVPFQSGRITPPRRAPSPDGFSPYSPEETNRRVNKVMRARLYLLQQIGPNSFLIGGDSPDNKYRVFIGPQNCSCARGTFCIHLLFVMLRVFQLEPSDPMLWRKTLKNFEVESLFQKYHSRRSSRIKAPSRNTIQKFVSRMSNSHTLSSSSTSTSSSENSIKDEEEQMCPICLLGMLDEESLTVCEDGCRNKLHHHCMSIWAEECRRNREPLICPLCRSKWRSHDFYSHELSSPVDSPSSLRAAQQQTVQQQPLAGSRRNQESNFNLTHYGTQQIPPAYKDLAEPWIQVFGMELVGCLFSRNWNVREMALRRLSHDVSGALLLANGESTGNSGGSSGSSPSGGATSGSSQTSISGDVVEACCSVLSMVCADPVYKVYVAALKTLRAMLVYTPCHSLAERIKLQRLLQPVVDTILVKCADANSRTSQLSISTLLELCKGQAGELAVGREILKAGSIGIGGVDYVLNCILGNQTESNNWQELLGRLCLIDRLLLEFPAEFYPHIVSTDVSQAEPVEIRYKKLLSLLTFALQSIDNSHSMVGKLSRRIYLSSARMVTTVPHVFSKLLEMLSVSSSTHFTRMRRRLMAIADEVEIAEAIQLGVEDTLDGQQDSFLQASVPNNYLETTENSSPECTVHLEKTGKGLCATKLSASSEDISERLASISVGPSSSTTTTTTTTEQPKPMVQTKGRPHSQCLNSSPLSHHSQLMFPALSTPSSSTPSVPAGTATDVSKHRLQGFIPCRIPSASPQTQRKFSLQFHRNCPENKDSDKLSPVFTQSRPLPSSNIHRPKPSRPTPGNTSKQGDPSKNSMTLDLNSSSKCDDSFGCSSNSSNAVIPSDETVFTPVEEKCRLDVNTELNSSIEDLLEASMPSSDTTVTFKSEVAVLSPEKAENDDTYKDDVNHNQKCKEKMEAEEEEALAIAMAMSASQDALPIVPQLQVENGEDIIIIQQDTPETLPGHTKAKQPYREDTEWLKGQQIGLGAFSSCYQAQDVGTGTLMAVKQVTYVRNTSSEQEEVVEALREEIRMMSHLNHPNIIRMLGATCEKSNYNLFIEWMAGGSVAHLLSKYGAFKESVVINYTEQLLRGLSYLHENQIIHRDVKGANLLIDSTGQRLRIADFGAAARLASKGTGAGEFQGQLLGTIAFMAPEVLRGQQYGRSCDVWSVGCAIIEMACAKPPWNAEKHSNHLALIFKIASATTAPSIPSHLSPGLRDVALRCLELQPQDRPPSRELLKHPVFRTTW

Structure (SMILES)	inhibition [%]
O=C(Nc1cnc2[nH]ccn2c1=O)c1ccccc1	3
CC(C)(C)Nc1c(COCc2ccccc2)nc2[nH]cnn12	0
CC(=O)Nc1nc2cnc(-c3ccccc3)cn2n1	9
CC1CN(c2nc3ccccn3c(=O)c2N)CC(C)O1 (stereo unspecified)	0
O=C(c1cccc(-c2cc3c(=O)[nH]cnc3s2)c1)N1CCOCC1	0
O=c1c(NC(=S)NCc2ccccc2)cnc2[nH]ccn12	0

target: MAP2K1 (human) (UniProt Q02750); assay: radiometric filter-binding kinase assay; conditions: compound 100.0 µM; ATP 5 µM

Structure (SMILES)	inhibition [%]
O=C(Nc1cnc2[nH]ccn2c1=O)c1ccccc1	24
CC(C)(C)Nc1c(COCc2ccccc2)nc2[nH]cnn12	0
CC(=O)Nc1nc2cnc(-c3ccccc3)cn2n1	34
CC1CN(c2nc3ccccn3c(=O)c2N)CC(C)O1 (stereo unspecified)	7
O=C(c1cccc(-c2cc3c(=O)[nH]cnc3s2)c1)N1CCOCC1	31
O=c1c(NC(=S)NCc2ccccc2)cnc2[nH]ccn12	57

target: PIM1 (human) (UniProt P11309); assay: radiometric filter-binding kinase assay; conditions: compound 100.0 µM; ATP 20 µM
Sequence (P11309 whole entry, looked up): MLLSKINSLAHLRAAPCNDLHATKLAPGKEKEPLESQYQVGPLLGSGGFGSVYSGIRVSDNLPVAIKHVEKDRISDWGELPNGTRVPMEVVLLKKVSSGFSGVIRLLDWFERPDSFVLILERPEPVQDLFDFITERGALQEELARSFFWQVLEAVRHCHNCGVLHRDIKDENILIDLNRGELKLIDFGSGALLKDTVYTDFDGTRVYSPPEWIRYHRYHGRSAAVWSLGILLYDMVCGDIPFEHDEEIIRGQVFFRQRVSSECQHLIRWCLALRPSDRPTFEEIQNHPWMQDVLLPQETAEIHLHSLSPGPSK

Structure (SMILES)	inhibition [%]
O=C(Nc1cnc2[nH]ccn2c1=O)c1ccccc1	0
CC(C)(C)Nc1c(COCc2ccccc2)nc2[nH]cnn12	30
CC(=O)Nc1nc2cnc(-c3ccccc3)cn2n1	13
CC1CN(c2nc3ccccn3c(=O)c2N)CC(C)O1 (stereo unspecified)	7
O=C(c1cccc(-c2cc3c(=O)[nH]cnc3s2)c1)N1CCOCC1	61
O=c1c(NC(=S)NCc2ccccc2)cnc2[nH]ccn12	0

target: MELK (human) (UniProt Q14680); assay: radiometric filter-binding kinase assay; conditions: compound 100.0 µM; ATP 50 µM

Structure (SMILES)	inhibition [%]
O=C(Nc1cnc2[nH]ccn2c1=O)c1ccccc1	2
CC(C)(C)Nc1c(COCc2ccccc2)nc2[nH]cnn12	16
CC(=O)Nc1nc2cnc(-c3ccccc3)cn2n1	17
CC1CN(c2nc3ccccn3c(=O)c2N)CC(C)O1 (stereo unspecified)	7
O=C(c1cccc(-c2cc3c(=O)[nH]cnc3s2)c1)N1CCOCC1	25
O=c1c(NC(=S)NCc2ccccc2)cnc2[nH]ccn12	0

target: CHEK2 (human) (UniProt O96017); assay: radiometric filter-binding kinase assay; conditions: compound 100.0 µM; ATP 20 µM
Sequence (O96017 whole entry, looked up): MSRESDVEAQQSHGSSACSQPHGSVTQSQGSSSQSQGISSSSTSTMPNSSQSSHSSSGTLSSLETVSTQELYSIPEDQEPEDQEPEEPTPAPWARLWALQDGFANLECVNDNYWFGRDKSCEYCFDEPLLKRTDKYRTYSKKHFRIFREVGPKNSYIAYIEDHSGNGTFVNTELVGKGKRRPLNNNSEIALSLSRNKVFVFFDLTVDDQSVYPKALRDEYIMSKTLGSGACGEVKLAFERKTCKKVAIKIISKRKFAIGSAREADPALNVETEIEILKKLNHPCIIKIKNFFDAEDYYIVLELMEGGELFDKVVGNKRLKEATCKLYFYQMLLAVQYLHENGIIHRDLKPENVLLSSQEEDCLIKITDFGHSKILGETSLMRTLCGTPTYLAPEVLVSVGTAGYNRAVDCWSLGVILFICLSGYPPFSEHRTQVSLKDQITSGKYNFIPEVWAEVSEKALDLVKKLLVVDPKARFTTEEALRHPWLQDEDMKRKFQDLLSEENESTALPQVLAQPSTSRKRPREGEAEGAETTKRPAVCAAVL

Structure (SMILES)	inhibition [%]
O=C(Nc1cnc2[nH]ccn2c1=O)c1ccccc1	32
CC(C)(C)Nc1c(COCc2ccccc2)nc2[nH]cnn12	19
CC(=O)Nc1nc2cnc(-c3ccccc3)cn2n1	25
CC1CN(c2nc3ccccn3c(=O)c2N)CC(C)O1 (stereo unspecified)	0
O=C(c1cccc(-c2cc3c(=O)[nH]cnc3s2)c1)N1CCOCC1	34
O=c1c(NC(=S)NCc2ccccc2)cnc2[nH]ccn12	20

target: TBK1 (human) (UniProt Q9UHD2); assay: radiometric filter-binding kinase assay; conditions: compound 100.0 µM; ATP 50 µM

Structure (SMILES)	inhibition [%]
O=C(Nc1cnc2[nH]ccn2c1=O)c1ccccc1	14
CC(C)(C)Nc1c(COCc2ccccc2)nc2[nH]cnn12	9
CC(=O)Nc1nc2cnc(-c3ccccc3)cn2n1	31
CC1CN(c2nc3ccccn3c(=O)c2N)CC(C)O1 (stereo unspecified)	0
O=C(c1cccc(-c2cc3c(=O)[nH]cnc3s2)c1)N1CCOCC1	17
O=c1c(NC(=S)NCc2ccccc2)cnc2[nH]ccn12	0

tested on: LCK (mouse); assay: radiometric filter-binding kinase assay; conditions: compound 100.0 µM; ATP 50 µM; accession and sequence are those of the human protein

Structure (SMILES)	inhibition [%]
O=C(Nc1cnc2[nH]ccn2c1=O)c1ccccc1	23
CC(C)(C)Nc1c(COCc2ccccc2)nc2[nH]cnn12	5
CC(=O)Nc1nc2cnc(-c3ccccc3)cn2n1	29
CC1CN(c2nc3ccccn3c(=O)c2N)CC(C)O1 (stereo unspecified)	2
O=C(c1cccc(-c2cc3c(=O)[nH]cnc3s2)c1)N1CCOCC1	40
O=c1c(NC(=S)NCc2ccccc2)cnc2[nH]ccn12	0

target: STK33 (human) (UniProt Q9BYT3); assay: radiometric filter-binding kinase assay; conditions: compound 100.0 µM; ATP 50 µM

Structure (SMILES)	inhibition [%]
O=C(Nc1cnc2[nH]ccn2c1=O)c1ccccc1	21
CC(C)(C)Nc1c(COCc2ccccc2)nc2[nH]cnn12	0
CC(=O)Nc1nc2cnc(-c3ccccc3)cn2n1	5
CC1CN(c2nc3ccccn3c(=O)c2N)CC(C)O1 (stereo unspecified)	8
O=C(c1cccc(-c2cc3c(=O)[nH]cnc3s2)c1)N1CCOCC1	0
O=c1c(NC(=S)NCc2ccccc2)cnc2[nH]ccn12	13

target: MINK1 (human) (UniProt Q8N4C8); assay: radiometric filter-binding kinase assay; conditions: compound 100.0 µM; ATP 50 µM

Structure (SMILES)	inhibition [%]
O=C(Nc1cnc2[nH]ccn2c1=O)c1ccccc1	25
CC(C)(C)Nc1c(COCc2ccccc2)nc2[nH]cnn12	3
CC(=O)Nc1nc2cnc(-c3ccccc3)cn2n1	58
CC1CN(c2nc3ccccn3c(=O)c2N)CC(C)O1 (stereo unspecified)	2
O=C(c1cccc(-c2cc3c(=O)[nH]cnc3s2)c1)N1CCOCC1	40
O=c1c(NC(=S)NCc2ccccc2)cnc2[nH]ccn12	0

target: STK11 CAB39 STRADA (human) (UniProt Q9Y376+Q7RTN6+Q15831); assay: radiometric filter-binding kinase assay; conditions: compound 100.0 µM; ATP 20 µM

Structure (SMILES)	inhibition [%]
O=C(Nc1cnc2[nH]ccn2c1=O)c1ccccc1	0
CC(C)(C)Nc1c(COCc2ccccc2)nc2[nH]cnn12	0
CC(=O)Nc1nc2cnc(-c3ccccc3)cn2n1	0
CC1CN(c2nc3ccccn3c(=O)c2N)CC(C)O1 (stereo unspecified)	0
O=C(c1cccc(-c2cc3c(=O)[nH]cnc3s2)c1)N1CCOCC1	0
O=c1c(NC(=S)NCc2ccccc2)cnc2[nH]ccn12	0

target: DYRK1A (human) (UniProt Q13627); assay: radiometric filter-binding kinase assay; conditions: compound 100.0 µM; ATP 50 µM

Structure (SMILES)	inhibition [%]
O=C(Nc1cnc2[nH]ccn2c1=O)c1ccccc1	0
CC(C)(C)Nc1c(COCc2ccccc2)nc2[nH]cnn12	30
CC(=O)Nc1nc2cnc(-c3ccccc3)cn2n1	43
CC1CN(c2nc3ccccn3c(=O)c2N)CC(C)O1 (stereo unspecified)	36
O=C(c1cccc(-c2cc3c(=O)[nH]cnc3s2)c1)N1CCOCC1	52
O=c1c(NC(=S)NCc2ccccc2)cnc2[nH]ccn12	5

target: DYRK3 (human) (UniProt O43781); assay: radiometric filter-binding kinase assay; conditions: compound 100.0 µM; ATP 5 µM

Structure (SMILES)	inhibition [%]
O=C(Nc1cnc2[nH]ccn2c1=O)c1ccccc1	18
CC(C)(C)Nc1c(COCc2ccccc2)nc2[nH]cnn12	17
CC(=O)Nc1nc2cnc(-c3ccccc3)cn2n1	69
CC1CN(c2nc3ccccn3c(=O)c2N)CC(C)O1 (stereo unspecified)	49
O=C(c1cccc(-c2cc3c(=O)[nH]cnc3s2)c1)N1CCOCC1	47
O=c1c(NC(=S)NCc2ccccc2)cnc2[nH]ccn12	10

target: PRKCG (human) (UniProt P05129); assay: radiometric filter-binding kinase assay; conditions: compound 100.0 µM; ATP 20 µM

Structure (SMILES)	inhibition [%]
O=C(Nc1cnc2[nH]ccn2c1=O)c1ccccc1	0
CC(C)(C)Nc1c(COCc2ccccc2)nc2[nH]cnn12	8
CC(=O)Nc1nc2cnc(-c3ccccc3)cn2n1	2
CC1CN(c2nc3ccccn3c(=O)c2N)CC(C)O1 (stereo unspecified)	0
O=C(c1cccc(-c2cc3c(=O)[nH]cnc3s2)c1)N1CCOCC1	16
O=c1c(NC(=S)NCc2ccccc2)cnc2[nH]ccn12	0

target: MARK4 (human) (UniProt Q96L34); assay: radiometric filter-binding kinase assay; conditions: compound 100.0 µM; ATP 50 µM

Structure (SMILES)	inhibition [%]
O=C(Nc1cnc2[nH]ccn2c1=O)c1ccccc1	13
CC(C)(C)Nc1c(COCc2ccccc2)nc2[nH]cnn12	22
CC(=O)Nc1nc2cnc(-c3ccccc3)cn2n1	0
CC1CN(c2nc3ccccn3c(=O)c2N)CC(C)O1 (stereo unspecified)	56
O=C(c1cccc(-c2cc3c(=O)[nH]cnc3s2)c1)N1CCOCC1	0
O=c1c(NC(=S)NCc2ccccc2)cnc2[nH]ccn12	21

target: IGF1R (human) (UniProt P08069); assay: radiometric filter-binding kinase assay; conditions: compound 100.0 µM; ATP 5 µM
Sequence (P08069 whole entry, looked up): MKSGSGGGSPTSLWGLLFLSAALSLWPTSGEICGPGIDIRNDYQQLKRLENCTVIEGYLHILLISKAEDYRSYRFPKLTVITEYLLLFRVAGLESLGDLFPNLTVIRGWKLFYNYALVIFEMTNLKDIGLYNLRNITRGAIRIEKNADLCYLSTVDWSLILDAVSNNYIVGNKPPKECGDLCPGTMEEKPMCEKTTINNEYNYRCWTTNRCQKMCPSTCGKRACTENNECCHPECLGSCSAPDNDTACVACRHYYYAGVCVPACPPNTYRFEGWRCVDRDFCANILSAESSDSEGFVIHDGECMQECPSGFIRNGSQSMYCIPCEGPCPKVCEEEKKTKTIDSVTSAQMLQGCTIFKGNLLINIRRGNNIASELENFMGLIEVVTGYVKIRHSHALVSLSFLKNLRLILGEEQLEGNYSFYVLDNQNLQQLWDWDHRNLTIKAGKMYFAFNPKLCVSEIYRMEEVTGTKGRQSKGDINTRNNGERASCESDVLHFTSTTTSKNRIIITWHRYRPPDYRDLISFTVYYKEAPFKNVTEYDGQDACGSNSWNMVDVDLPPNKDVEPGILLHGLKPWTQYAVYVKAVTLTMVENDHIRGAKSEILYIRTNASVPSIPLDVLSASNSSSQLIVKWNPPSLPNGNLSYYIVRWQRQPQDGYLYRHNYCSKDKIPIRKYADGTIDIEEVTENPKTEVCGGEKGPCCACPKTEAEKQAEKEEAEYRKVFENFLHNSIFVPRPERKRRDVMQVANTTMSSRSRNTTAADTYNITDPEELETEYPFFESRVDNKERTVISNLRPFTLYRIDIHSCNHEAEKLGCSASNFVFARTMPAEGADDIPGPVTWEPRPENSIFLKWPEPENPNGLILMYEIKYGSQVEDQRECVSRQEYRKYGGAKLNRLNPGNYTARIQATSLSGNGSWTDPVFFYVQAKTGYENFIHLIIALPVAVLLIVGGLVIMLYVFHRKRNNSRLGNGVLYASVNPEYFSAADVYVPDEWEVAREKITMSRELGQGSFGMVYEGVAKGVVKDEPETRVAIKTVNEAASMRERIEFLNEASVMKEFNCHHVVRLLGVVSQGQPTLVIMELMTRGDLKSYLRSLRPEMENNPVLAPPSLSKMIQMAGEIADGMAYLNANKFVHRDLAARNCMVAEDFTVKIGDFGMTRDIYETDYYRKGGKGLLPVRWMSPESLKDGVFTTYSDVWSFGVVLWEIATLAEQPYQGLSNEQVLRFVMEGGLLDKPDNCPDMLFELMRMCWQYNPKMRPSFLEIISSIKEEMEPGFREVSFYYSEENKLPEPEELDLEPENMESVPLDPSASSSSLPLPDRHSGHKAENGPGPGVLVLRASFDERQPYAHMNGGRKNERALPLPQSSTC

Structure (SMILES)	inhibition [%]
O=C(Nc1cnc2[nH]ccn2c1=O)c1ccccc1	0
CC(C)(C)Nc1c(COCc2ccccc2)nc2[nH]cnn12	0
CC(=O)Nc1nc2cnc(-c3ccccc3)cn2n1	11
CC1CN(c2nc3ccccn3c(=O)c2N)CC(C)O1 (stereo unspecified)	0
O=C(c1cccc(-c2cc3c(=O)[nH]cnc3s2)c1)N1CCOCC1	0
O=c1c(NC(=S)NCc2ccccc2)cnc2[nH]ccn12	0
